Experimental data published in patent US6255317A, “Cholesterol biosynthesis inhibitors” (Hanwha Chemical Corporation, priority 1998, dated 2001).
Read-outs that look alike come from different tables or passages of the source.

Legend:
Syrian Golden Hamster = assay: In vivo effect on plasma lipids and glucose in Syrian Golden Hamster; conditions: for Glucose, percent change in parentheses / HDL cholesterol, percent change in parentheses / LDL cholesterol, percent change in parentheses / Total cholesterol, percent change in parentheses / Trigly-ceride, percent change in parentheses: against normal diet control, 6.0 mg/kg/day; for Glucose / HDL cholesterol / LDL cholesterol / Total cholesterol / Trigly-ceride: normal diet + 6.0 mg/kg/day, oral, 14 days; for Glucose: hamster; for HDL cholesterol / LDL cholesterol / Total cholesterol / Trigly-ceride: hamster plasma; for total cholesterol, LDL-cholesterol, and triglyceride levels (in words): Syrian Golden Hamster, compared with lovastatin
Method: In order to investigate the effect of the compound of formula (1) of the invention, the compound was orally administered into male Syrian Golden Hamsters having weights of 90~110 g and then blood was taken from each animal. Plasma lipids, i.e., total cholesterol, LDL-cholesterol, HDL-cholesterol and triglycerides were analyzed using an automatic analyzer (Automatic analyzer model Hitachi 7150).
Male Syrian Golden Hamsters weighing 90~110 g distributed from Samyuk Animal Laboratory, Seoul, Korea were bred under the following conditions: They were maintained under reverse light cycle (light cycle: from 6 P.M to 6 A.M; dark cycle: from 6 A.M. to 6 P.M.). The food and water were supplied at 10 A.M. The commercially available standard rodent chows were used. The hamsters were divided into 6 or 7 animals per group. The animals were fasted for 12 hours before administrating the drug. Then, dehydrocoridaline derivatives dissolved in a 0.25% methyl cellulose solution was administered orally for 14 days at the indicated time per a day. After fasting animals for 24 hours from the last administration, blood was extracted using a cardiac puncture and plasma was then isolated. Plasma lipids, i.e., total cholesterol, LDL-cholesterol, HDL-cholesterol and triglyceride values were analyzed using Automatic Analyzer (Hitachi 7150).

sterol 14-reductase = molecular target: T1, sterol 14-reductase (Rattus norvegicus, UniProt A0ACM8Q6X4); assay: Sterol 14-reductase assay with rat liver microsomes (substrate 4,4-dimethyl-5α-cholesta-7,14-dien-3β-ol, GLC); assay type: biochemical, Sprague-Dawley rats
T1 construct: to give a microsome which was used as an enzyme source of sterol 14-reductase; from tissue
T1 sequence (A0ACM8Q6X4 1-418): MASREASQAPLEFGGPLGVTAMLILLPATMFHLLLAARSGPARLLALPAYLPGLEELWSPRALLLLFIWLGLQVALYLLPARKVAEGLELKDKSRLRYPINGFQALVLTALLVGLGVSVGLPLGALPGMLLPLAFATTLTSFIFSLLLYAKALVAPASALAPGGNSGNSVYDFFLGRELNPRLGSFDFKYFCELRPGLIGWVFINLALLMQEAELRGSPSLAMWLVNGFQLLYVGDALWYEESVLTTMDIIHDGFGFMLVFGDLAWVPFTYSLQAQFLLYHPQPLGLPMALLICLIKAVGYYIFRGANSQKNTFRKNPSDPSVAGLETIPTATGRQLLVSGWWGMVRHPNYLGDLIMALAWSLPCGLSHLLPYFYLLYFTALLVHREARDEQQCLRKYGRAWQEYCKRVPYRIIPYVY
Method: First, a screening system for sterol 14-reductase was constructed in which 4,4-dimethyl-5α-cholesta-7,14-dien-3β-ol is used as a substrate and then, the effect on the activity of sterol 14-reductase was investigated in the screening system.
The animals were fasted for 12 hours before excising liver tissues and then sacrificed by decapitation at midnight. An aqueous solution containing 0.25M of sucrose was injected into the hepatic portal vein to remove all the blood within the liver, and then, the liver was excised. The liver was homogenated with two volummes of buffer solution 1 (0.1 M potassium phosphate , 1 mM reduced glutathione, 0.5 mM EDTA, 20% (v/v) glycerol, pH 7.4) by repeating pestles over 10 times and then, centrifuged with 900×g for 5 minutes to give a supernatant. The supernatant was centrifuged with 12,000×g for 20 minutes. The supernatant obtained was ultracentrifuged with 105,000×g for 90 minutes to give a microsome which was used as an enzyme source of sterol 14-reductase. Assay against sterol 14-reductase was carried out as follows: 60 nmol of 4,4-dimethyl-5α-cholesta-7,14-dien-3β-ol and the extract from Corydalis Turtschaninowii Besser dissolved into DMSO were added to an assay mixture (total volume 1.0 ml) containing 2 mg of microsomal protein, 2 mM of NADPH and 25 mg of glucose plus 20 units of glucose oxidase with preincubations under nitrogen at 37° C. for 4 min unless otherwise specified to establish anaerobic condition. Buffer A (0.1M potassium phosphate buffer, pH 7.4, including 1 mM reduced glutathione, 0.5 mM EDTA, and 20% (v/v) glycerol) used for incubation had been equilibrated with nitrogen, and nitrogen was exchanged for air in all sealed reaction flasks prior to the start of incubations. Incubation of the complete mixture was carried out anaerobically in sealed flasks for 10 min at 37° C. unless otherwise indicated. Incubations were terminated by the addition of 1 ml of ethanolic KOH followed by heating under reflux for 10 min. Sterols were extracted four times with 4 ml of petroleum ether, and the solvent was evaporated to dryness under a nitrogen stream. The resulting residue was dissolved in 200-500 μl of n-hexane for quantification by GLC at high sensitive attenuation. The activity of sterol 14-reductase was determined with the amount of the substrate wherein the double bonds of 14-carbon were reduced (for the amount reduced by 1 mg of the microsome protein for 1 minute).

[1] = tested on: human liver HepG2 cell line; assay: Cholesterol biosynthesis in cultured human liver cell line HepG2 ([1,2-14C]acetate); assay type: cell-based; conditions: compared with AY9944, comparative drug
Method: Cultured human liver HepG2 cell line was grown on RPMI (Rosewell park Memorial Institute) 1640 culture medium containing 10% […] until 60% of monolayer are formed in a 60 mm culture dish. After replacing the medium with 3 ml of a fresh culture medium containing 10%(v/v) LPDS (Fetal calf lipoprotein-deficient serum), the cells were further grown for 48 hours until 90% of cultivation degree appear. The culture medium was removed and the cell was then washed with PBS. 2 ml of culture medium containing compound no. 8 (final concentration 100 μM) and AY-9944 (final concentration 1 μM) were added thereto. Then, the medium was cultivated at 37° C. for 1 hour under the condition of 95% air/5% carbonic acid gas. AY-9944 which is an inhibitor for sterol 7-reductase was used as a control drug for assuring the present experimental procedure on the inhibition of cholesterol biosynthesis. Thereafter, 3 μCi of [1 ,2-^14 C]acetate (72 mCi/mmol) were added thereto. The cultivation was continued for 2 hours so that the isotope is introduced into the cell and used as a precursor for sterol to be synthesized. Then, the culture medium was completely removed and washed with PBS twice and the cells were collected by scratching. 10 μg of cholesterol, 10 μg of lanosterol and [^3 H]cholesterol (30,000 dpm) were added thereto, and saponification reaction was carried out at 70° C. for an hour by adding 7.5% of methanolic KOH solution. Unsaponified sterol was removed by extracting them three times with 3 ml of petroleum ether and dried with nitrogen purging. The dried samples were redissolved in 200 μl of chloroform. An aliquot of the samples was loaded onto Silicagel 60F thin layer plate and then separated using ethyl acetate/hexane 25/75 (v/v) as the developing solvent. The thin layer film was developed by exposure to Amersham Hyperfilm at -70° C. for 7 days. Cholesterol band were confirmed by comparing the band appeared in the film and that appeared in the iodine-stained thin layer. After scratching the cholesterol band, it was quantified by a liquid scintillation counter.

[2] = Acute oral toxicity in SD rats; assay type: in vivo; conditions: rat, in vivo, po, rats
Method: (§1) Meanwhile, the toxicity of the compounds of the present invention was mvestigated as follows: i.e., the compounds were suspended into propylene glycol and then orally administered into each of 5 male and female SD rats at the age of 5-weeks that were fasted for 12 hours. Under the usual breeding conditions, general symptoms, weight change and lethal case of the above rats were monitored for two weeks. At the dose over 2,000 mg/kg of the compound nos. […] Rats were safe against the dose of 700 mg/kg of compound no. 8.

SD rats = assay: Acute oral toxicity in SD rats; assay type: in vivo; conditions: for general symptoms, weight change and lethal case over two weeks: rat, in vivo
Method: as §1

[3] = read-out: Enzyme Activity (relative in vitro activity for sterol 14-reductase, IC50 class)

In the case of `CC[C@H](C)C(=O)O[C@H]1C[C@@H](C)C=C2C=C[C@H](C)[C@H](CC[C@@H]3C[C@@H](O)CC(=O)O3)[C@H]21` [lovastatin, reference compound], the “Glucose, percent change in parentheses” value (Syrian Golden Hamster) is reported as “+1.0%”, the “HDL cholesterol, percent change in parentheses” value (from here on “HDL cholesterol, percent change”) (Syrian Golden Hamster) is reported as -2.6% and the “LDL cholesterol, percent change in parentheses” value (from here on “LDL cholesterol, percent change”) (Syrian Golden Hamster) is reported as -29.1%. The “Total cholesterol, percent change in parentheses” value (from here on “Total cholesterol, percent change”) (Syrian Golden Hamster) was -22.7%, the Glucose (Syrian Golden Hamster) was 184.6 ± 23.2 mg/dL and the HDL cholesterol (Syrian Golden Hamster) was 51.4 ± 2.6 mg/dL. For the same compound, the LDL cholesterol (Syrian Golden Hamster) was 29.9 ± 1.9 mg/dL, the Total cholesterol (Syrian Golden Hamster) was 97.4 ± 3.4 mg/dL and the Trigly-ceride (Syrian Golden Hamster) was 182.6 ± 17.0 mg/dL.
In the case of `CCOc1cc2c(cc1OCC)-c1c(CC)c3ccc(OCC)c(OCC)c3c[n+]1CC2` [Compound No. 5, 2,3,9,10-Tetraethoxy-13-ethylberberine], the IC50 (sterol 14-reductase; [3]) is reported as ≤ 1 µM, the “cholesterol biosynthesis in human HepG2 cell line (in words)” value (“cholesterol biosynthesis” below) [1] is reported as “markedly inhibited” and the “total cholesterol, LDL-cholesterol, and triglyceride levels (in words)” value (“total cholesterol, LDL-cholesterol” below) (Syrian Golden Hamster) is reported as “markedly decreased”. For the same compound, the “Glucose, percent change in parentheses” value (Syrian Golden Hamster) was -12.4%, the “HDL cholesterol, percent change” value (Syrian Golden Hamster) was -3.2% and the “LDL cholesterol, percent change” value (Syrian Golden Hamster) was -41.2%. For the same compound, the “Total cholesterol, percent change” value (Syrian Golden Hamster) was -23.5%, the “Trigly-ceride, percent change in parentheses” value (from here on “Trigly-ceride, percent change”) (Syrian Golden Hamster) was -28.5% and the Glucose (Syrian Golden Hamster) was 160.2 ± 20.9 mg/dL. The HDL cholesterol (Syrian Golden Hamster) was 51.1 ± 3.0 mg/dL, the LDL cholesterol (Syrian Golden Hamster) was 24.9 ± 3.0 mg/dL and the Total cholesterol (Syrian Golden Hamster) was 97.0 ± 5.6 mg/dL. The Trigly-ceride (Syrian Golden Hamster) was 94.7 ± 11.5 mg/dL, the LD50 at 336 h ([2]; female) was > 5000 mg/kg and the LD50 at 336 h ([2]; male) was > 5000 mg/kg. For the same compound, the “general symptoms, weight change and lethal case over two weeks” value (SD rats) was “general symptoms and the body weight change of the animals were normal and the lethal case was not observed”.
In the case of `CCc1c2[n+](cc3c(OC)c(OC)ccc13)CCc1cc(OC)c(OC)cc1-2` [Compound No. 8, 13-Ethylpalmatine], the IC50 (sterol 14-reductase; dissolved in DMSO, read-out: concentration of active ingredient in the assay at which 50% of inhibitory effect was observed (sterol 14-reductase)) is reported as 100 to 3000 µM, the IC50 (sterol 14-reductase; [3]) is reported as ≤ 1 µM and the “cholesterol biosynthesis” value [1] is reported as “markedly inhibited”. The “total cholesterol, LDL-cholesterol” value (Syrian Golden Hamster) was “markedly decreased”, the “Glucose, percent change in parentheses” value (Syrian Golden Hamster) was -10.9% and the “HDL cholesterol, percent change” value (Syrian Golden Hamster) was -1.8%. For the same compound, the “LDL cholesterol, percent change” value (Syrian Golden Hamster) was -42.0%, the “Total cholesterol, percent change” value (Syrian Golden Hamster) was -25.4% and the “Trigly-ceride, percent change” value (Syrian Golden Hamster) was -31.7%. It also gave a Glucose (Syrian Golden Hamster) of 162.2 ± 11.3 mg/dL, an HDL cholesterol (Syrian Golden Hamster) of 47.5 ± 3.0 mg/dL and an LDL cholesterol (Syrian Golden Hamster) of 24.5 ± 1.8 mg/dL. For the same compound, the Total cholesterol (Syrian Golden Hamster) was 94.0 ± 6.6 mg/dL, the Trigly-ceride (Syrian Golden Hamster) was 90.4 ± 8.9 mg/dL and the LD50 at 336 h ([2]; female) was > 760 mg/kg. The LD50 at 336 h ([2]; male) was > 925 mg/kg and the “safety of rats at single oral dose” value (SD rats; dose of 700 mg/kg, oral, SD rats) was “safe”.
In the case of `CCC1=C2c3cc(OC)c(OC)cc3CCN2C(CC(C)=O)c2c1ccc(OC)c2OC` (stereo not shown) [Compound No. 37, 8-Acetonyl-13-ethyldihydropalmatine], the IC50 (sterol 14-reductase; [3]) is reported as ≤ 1 µM, the “cholesterol biosynthesis” value [1] is reported as “markedly inhibited” and the “total cholesterol, LDL-cholesterol” value (Syrian Golden Hamster) is reported as “markedly decreased”. The “Glucose, percent change in parentheses” value (Syrian Golden Hamster) was -23.0%, the “HDL cholesterol, percent change” value (Syrian Golden Hamster) was “+2.0%” and the “LDL cholesterol, percent change” value (Syrian Golden Hamster) was -52.1%. For the same compound, the “Total cholesterol, percent change” value (Syrian Golden Hamster) was -33.5%, the “Trigly-ceride, percent change” value (Syrian Golden Hamster) was -48.1% and the Glucose (Syrian Golden Hamster) was 140.4 ± 15 mg/dL. The HDL cholesterol (Syrian Golden Hamster) was 54.2 ± 3.0 mg/dL, the LDL cholesterol (Syrian Golden Hamster) was 20.2 ± 2.0 mg/dL and the Total cholesterol (Syrian Golden Hamster) was 83.8 ± 5.6 mg/dL. For the same compound, the Trigly-ceride (Syrian Golden Hamster) was 68.8 ± 11.5 mg/dL, the LD50 at 336 h ([2]; female) was > 2000 mg/kg and the LD50 at 336 h ([2]; male) was > 2500 mg/kg. The “general symptoms, weight change and lethal case over two weeks” value (SD rats) was “general symptoms and the body weight change of the animals were normal and the lethal case was not observed”.
